Measured values as given in paper PMC12211128, “Safety, tolerability, pharmacokinetic and pharmacodynamic effects of the muscarinic M1 positive allosteric modulator VU0467319 for Alzheimer’s disease: a single ascending-dose study in healthy participants” (Alzheimer's Research & Therapy, 2025).
Marks after values point to notes of the source that are not given here.

How the values were obtained:
healthy participants [1] = assay: Auditory oddball ERP task; assay type: in vivo, human; conditions: for Auditory oddball P300 amplitude, targets vs standards, effect size d: post-dose session; for Mean amplitude over the parietal cortex, Auditory Oddball, Standard trials / Mean amplitude over the parietal cortex, Auditory Oddball, Target trials: mean (SD)
Protocol: (§1) Following the cognitive battery, an electrophysiology recording was set up. Visual and auditory ERPs were recorded using a 128-channel Geodesic sensor net (EGI, Inc., Eugene, OR; [37, 38]). The electrophysiological recording was sampled at 250 Hz with filters set at 0.1–100 Hz. During data collection, all electrodes were referenced to vertex (Cz). The recording session lasted approximately 30 min.
Auditory and visual oddball tasks were performed to assess attention in auditory and visual modalities. In the auditory task, a pair of two pure tones (single formant) at 1000 and 1500 Hz were the stimuli. In the visual task, the stimuli were a pair of letters (X & O). The assignment of stimuli to standard and target conditions (70% & 30% of the trials respectively), was counterbalanced across participants. Each participant was asked to press a different button using their preferred hand upon presentation of the standard and the target stimulus. On average, auditory and visual tasks lasted 6–7 min each.
(§2) ERP processing and Analysis: Single-trial ERPs were derived by extracting a 100-ms pre-stimulus baseline and a 900 ms post-stimulus interval. The trials were screened for ocular and motor artifacts using automated procedures with standard threshold settings (NetStation 4.4, EGI, Inc) and verified using manual review. Data for electrodes characterized by consistent artifacts were replaced using the spherical spline interpolation algorithm. If more than 15 electrodes within a trial were noisy, the entire trial was discarded. Remaining artifact-free trials were averaged separately for each condition (standard vs. oddball; novel vs. repeated images), re-referenced to an average reference, and baseline corrected. For individual participant’s data to be included in the analysis, each condition average had to have a minimum of 10 artifact-free trials.
(§3) Statistical analysis focused on a priori selected electrode clusters corresponding to frontal, central, and parietal midline locations (Fz, Cz, Pz in 10–20 notation), confirmed using spatial principal components analysis. Mean amplitudes were calculated within 250–400 ms (frontal P3a), 300–500 ms (parietal P300), and 500–800 ms (parietal P600) temporal windows. These a-priori selected windows were confirmed using temporal principal components analysis.
(§4) Analyses for the auditory and visual oddball ERPs focused on the parietal (P300) and frontal (P3a) responses to standard and target stimuli. Differences in the amplitude, latency, and scalp topography of the responses were examined. […] For the incidental memory paradigm, differences in the mean amplitude of the parietal P300/P600 responses to repeated vs. novel presentations. The amplitude of the parietal P300/P600 waveform measures stimulus recognition. A larger positive amplitude for repeated compared to novel images indicates spontaneous formation of a memory trace.
Auditory and visual oddball tasks were performed to assess attention in auditory and visual modalities (Comerchero & Polich, 1999; Polich, 2007). In the auditory task, a pair of two pure tones (single formant) at 1000 and 1500 Hz were the stimuli. Tones were equated in duration (300 ms) and rise/decay times. Tones were presented at 75 dB SPL (measured at the ear) through a speaker positioned 1 meter in front of the participant. In the visual task, the stimuli were a pair of letters (X & O). All stimuli were presented in random order for 500 ms in the center of a computer monitor positioned 1 meter in front of the participant. For both auditory and visual tasks, 200 trials were presented with the inter-stimulus interval varying randomly between 1000-1300 ms to prevent habituation to stimulus onset. The assignment of stimuli to standard and target conditions (70% & 30% of the trials respectively), was counterbalanced across participants. […]

healthy participants [2] = assay: Incidental visual memory ERP paradigm; assay type: in vivo, human; conditions: for Mean amplitude over the parietal cortex, Incidental Memory task, Novel trials / Mean amplitude over the parietal cortex, Incidental Memory task, Repeat trials: mean (SD)
Protocol: as §1
(§5) A passive incidental visual memory paradigm (120 trials, 8 min; [38]) was used to evaluate changes in basic memory processes. Participants were asked to view a slide show of novel color photographs depicting complex natural scenes (different sets of images were used at pre-dose vs. post-dose administration test sessions). A small subset (n = 10) of the stimuli was presented repeatedly (× 5 each) throughout the session; the rest (n = 50) were shown once. To encourage attention to the stimulus sequence, 20 attention probes (a yellow smiley face) were presented throughout the test session and required a button press response. The task duration was approximately 7 min.
as §2, §3, §4
as §5, with “(Key & Dykens, 2014))” for “[38])”, “once. All stimuli were presented in random order for 1500 ms with a random interstimulus interval of 1300-1600 ms.” for “once.”, “minutes.” for “min.”

[3] = VU319 120 mg, fasting, post-drug session, n = 9
[4] = VU319 120 mg, fasting, pre-drug session, n = 9
[5] = VU319 120 mg, fed, post-drug session, n = 9
[6] = VU319 120 mg, fed, pre-drug session, n = 9
[7] = SAD study, 120mg, Pre-Drug, n = 5
[8] = VU319 120 mg, fasting, post-drug session
[9] = VU319 120 mg, fasting, pre-drug session
[10] = VU319 120 mg, fed, post-drug session
[11] = VU319 120 mg, fed, pre-drug session

Cn1cc2c(-c3cc(F)c(CN4Cc5ncccc5C4=O)c(F)c3)cccc2n1 [VU319]
Auditory oddball parietal amplitude, target vs standard, post- vs pre-dose, effect size d (healthy participants [1]; 60 mg, p = 0.002): 1.32 | Auditory oddball parietal amplitude, target vs standard, post- vs pre-dose, effect size d (healthy participants [1]; 120 mg, SAD, p = 0.18): 0.64 | Auditory oddball P300 amplitude, targets vs standards, effect size d (healthy participants [1]; 120 mg, fasted, p = 0.033): 0.8 | Auditory oddball P300 amplitude, targets vs standards, effect size d (healthy participants [1]; 120 mg, fed, p = 0.25): 0.85 | Mean amplitude over the parietal cortex, Auditory Oddball, Standard trials (healthy participants [1]; SAD study, 60 mg, Post-Drug): 1.31 (1.02) µV | Mean amplitude over the parietal cortex, Auditory Oddball, Target trials (healthy participants [1]; SAD study, 60 mg, Post-Drug): 3.69 (1.83) µV | Mean amplitude over the parietal cortex, Auditory Oddball, Standard trials (healthy participants [1]; SAD study, 60 mg, Pre-Drug): 1.23 (0.96) µV | Mean amplitude over the parietal cortex, Auditory Oddball, Target trials (healthy participants [1]; SAD study, 60 mg, Pre-Drug): 2.0 (1.32) µV | Mean amplitude over the parietal cortex, Auditory Oddball, Standard trials (healthy participants [1]; SAD study, 120 mg, Post-Drug): 0.85 (1.41) µV | Mean amplitude over the parietal cortex, Auditory Oddball, Target trials (healthy participants [1]; SAD study, 120 mg, Post-Drug): 3.18 (1.24) µV | Mean amplitude over the parietal cortex, Auditory Oddball, Standard trials (healthy participants [1]; SAD study, 120 mg, Pre-Drug): 1.83 (1.04) µV | Mean amplitude over the parietal cortex, Auditory Oddball, Target trials (healthy participants [1]; SAD study, 120 mg, Pre-Drug): 3.23 (1.85) µV | Mean amplitude over the parietal cortex, Auditory Oddball, Standard trials (healthy participants [1]; SAD study, 240 mg, Post-Drug): 1.04 (1.54) µV | Mean amplitude over the parietal cortex, Auditory Oddball, Target trials (healthy participants [1]; SAD study, 240 mg, Post-Drug): 2.42 (1.53) µV | Mean amplitude over the parietal cortex, Auditory Oddball, Standard trials (healthy participants [1]; SAD study, 240 mg, Pre-Drug): 1.34 (1.02) µV | Mean amplitude over the parietal cortex, Auditory Oddball, Target trials (healthy participants [1]; SAD study, 240 mg, Pre-Drug): 2.94 (1.57) µV | Mean amplitude over the parietal cortex, Auditory Oddball, Standard trials (healthy participants [1]; SAD study, 400 mg, Post-Drug): 0.48 (0.92) µV | Mean amplitude over the parietal cortex, Auditory Oddball, Target trials (healthy participants [1]; SAD study, 400 mg, Post-Drug): 2.12 (0.34) µV | Mean amplitude over the parietal cortex, Auditory Oddball, Standard trials (healthy participants [1]; SAD study, 400 mg, Pre-Drug): 0.66 (1.09) µV | Mean amplitude over the parietal cortex, Auditory Oddball, Target trials (healthy participants [1]; SAD study, 400 mg, Pre-Drug): 1.7 (0.67) µV | Mean amplitude over the parietal cortex, Auditory Oddball, Standard trials (healthy participants [1]; SAD study, 600 mg, Post-Drug): 1.84 (1.22) µV | Mean amplitude over the parietal cortex, Auditory Oddball, Target trials (healthy participants [1]; SAD study, 600 mg, Post-Drug): 4.31 (2.13) µV | Mean amplitude over the parietal cortex, Auditory Oddball, Standard trials (healthy participants [1]; SAD study, 600 mg, Pre-Drug): 0.74 (1.24) µV | Mean amplitude over the parietal cortex, Auditory Oddball, Target trials (healthy participants [1]; SAD study, 600 mg, Pre-Drug): 3.08 (2.61) µV | Mean amplitude over the parietal cortex, Auditory Oddball, Standard trials (healthy participants [1]; [3]): 1.17 (1.66) µV | Mean amplitude over the parietal cortex, Auditory Oddball, Target trials (healthy participants [1]; [3]): 2.56 (2.38) µV | Mean amplitude over the parietal cortex, Auditory Oddball, Standard trials (healthy participants [1]; [4]): 1.09 (1.78) µV | Mean amplitude over the parietal cortex, Auditory Oddball, Target trials (healthy participants [1]; [4]): 2.11 (2.11) µV | Mean amplitude over the parietal cortex, Auditory Oddball, Standard trials (healthy participants [1]; [5]): -0.07 (0.96) µV | Mean amplitude over the parietal cortex, Auditory Oddball, Target trials (healthy participants [1]; [5]): 0.8 (1.11) µV | Mean amplitude over the parietal cortex, Auditory Oddball, Standard trials (healthy participants [1]; [6]): 0.51 (1.65) µV | Mean amplitude over the parietal cortex, Auditory Oddball, Target trials (healthy participants [1]; [6]): 2.32 (1.46) µV | Incidental memory, novel vs repeated images (healthy participants [2]; 120 mg, fasted condition, either session, both p > 0.2): did not show a difference | Incidental memory parietal P300/P600 amplitude, repeated vs novel, effect size d (healthy participants [2]; 120 mg, fed condition, p = 0.018): 0.91 | Incidental memory parietal P300/P600 amplitude, repeated vs novel, effect size d (healthy participants [2]; 400 mg, p = 0.098): 0.83 | Incidental memory parietal P300/P600 amplitude, repeated vs novel, effect size d (healthy participants [2]; 600 mg, p = 0.09): 0.86 | Incidental memory P300/P600 amplitude, repeated vs novel, higher two doses compared to placebo, effect size d (healthy participants [2]; 400 and 600 mg): > 0.8 | Mean amplitude over the parietal cortex, Incidental Memory task, Novel trials (healthy participants [2]; SAD study, 60 mg, Post-Drug): 0.87 (1.92) µV | Mean amplitude over the parietal cortex, Incidental Memory task, Repeat trials (healthy participants [2]; SAD study, 60 mg, Post-Drug): 1.25 (1.02) µV | Mean amplitude over the parietal cortex, Incidental Memory task, Novel trials (healthy participants [2]; SAD study, 60 mg, Pre-Drug): 0.49 (2.16) µV | Mean amplitude over the parietal cortex, Incidental Memory task, Repeat trials (healthy participants [2]; SAD study, 60 mg, Pre-Drug): 0.77 (1.85) µV | Mean amplitude over the parietal cortex, Incidental Memory task, Novel trials (healthy participants [2]; SAD study, 120 mg, Post-Drug): 1.67 (2.01) µV | Mean amplitude over the parietal cortex, Incidental Memory task, Repeat trials (healthy participants [2]; SAD study, 120 mg, Post-Drug): 2.16 (1.69) µV | Mean amplitude over the parietal cortex, Incidental Memory task, Novel trials (healthy participants [2]; [7]): 2.3 (1.78)^# µV | Mean amplitude over the parietal cortex, Incidental Memory task, Repeat trials (healthy participants [2]; [7]): 2.66 (2.5)^# µV | Mean amplitude over the parietal cortex, Incidental Memory task, Novel trials (healthy participants [2]; SAD study, 240 mg, Post-Drug): 1.76 (1.4) µV | Mean amplitude over the parietal cortex, Incidental Memory task, Repeat trials (healthy participants [2]; SAD study, 240 mg, Post-Drug): 2.19 (1.37) µV | Mean amplitude over the parietal cortex, Incidental Memory task, Novel trials (healthy participants [2]; SAD study, 240 mg, Pre-Drug): 1.22 (1.44) µV | Mean amplitude over the parietal cortex, Incidental Memory task, Repeat trials (healthy participants [2]; SAD study, 240 mg, Pre-Drug): 2.14 (1.27) µV | Mean amplitude over the parietal cortex, Incidental Memory task, Novel trials (healthy participants [2]; SAD study, 400 mg, Post-Drug): 2.45 (1.79) µV | Mean amplitude over the parietal cortex, Incidental Memory task, Repeat trials (healthy participants [2]; SAD study, 400 mg, Post-Drug): 3.14 (2.3) µV | Mean amplitude over the parietal cortex, Incidental Memory task, Novel trials (healthy participants [2]; SAD study, 400 mg, Pre-Drug): 2.35 (1.07) µV | Mean amplitude over the parietal cortex, Incidental Memory task, Repeat trials (healthy participants [2]; SAD study, 400 mg, Pre-Drug): 1.91 (1.19) µV | Mean amplitude over the parietal cortex, Incidental Memory task, Novel trials (healthy participants [2]; SAD study, 600 mg, Post-Drug): 1.98 (0.97) µV | Mean amplitude over the parietal cortex, Incidental Memory task, Repeat trials (healthy participants [2]; SAD study, 600 mg, Post-Drug): 3.17 (1.37) µV | Mean amplitude over the parietal cortex, Incidental Memory task, Novel trials (healthy participants [2]; SAD study, 600 mg, Pre-Drug): 2.47 (1.3) µV | Mean amplitude over the parietal cortex, Incidental Memory task, Repeat trials (healthy participants [2]; SAD study, 600 mg, Pre-Drug): 2.74 (1.63) µV | Mean amplitude over the parietal cortex, Incidental Memory task, Novel trials (healthy participants [2]; [8]): 1.0 (1.39) µV | Mean amplitude over the parietal cortex, Incidental Memory task, Repeat trials (healthy participants [2]; [8]): 1.48 (1.3) µV | Mean amplitude over the parietal cortex, Incidental Memory task, Novel trials (healthy participants [2]; [9]): 1.34 (1.09) µV | Mean amplitude over the parietal cortex, Incidental Memory task, Repeat trials (healthy participants [2]; [9]): 1.46 (1.45) µV | Mean amplitude over the parietal cortex, Incidental Memory task, Novel trials (healthy participants [2]; [10]): 1.04 (1.81) µV | Mean amplitude over the parietal cortex, Incidental Memory task, Repeat trials (healthy participants [2]; [10]): 2.43 (1.59) µV | Mean amplitude over the parietal cortex, Incidental Memory task, Novel trials (healthy participants [2]; [11]): 1.0 (0.95) µV | Mean amplitude over the parietal cortex, Incidental Memory task, Repeat trials (healthy participants [2]; [11]): 0.88 (2.27) µV
